These are literature values, as cited in patent US20240164375A1, “LIQUID DISINFECTANT COMPOSITION AND USE THEREOF” (HYPRED, priority 2002, published 2024).

Each structure is given as a SMILES string.

For this data set the following is noted: 25° C.

In general, pKa refers to the pH at which an ionisable group is half protonated. With `CCCCCCCC(=O)O` [octanoic acid], the pKa is listed as 4.85.
